Columns and labels:
human GPR52 [1] = molecular target: T1, human GPR52 (Homo sapiens, UniProt Q9Y2T5);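 further: HEKf cells transduced with GPR52 BacMam for 24 h, 2000 per well, exposed to compounds 30 min at 37° C with 0.5 mM IBMX, cAMP read by HTRF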
human GPR52 [2] = molecular target: T1, human GPR52; test: GPR52 Agonist Functional cAMP Assay;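 on all read-outs here: HEKf cells transduced with GPR52 BacMam for 24 h, 2000 per well, exposed to compounds 30 min at 37° C with 0.5 mM IBMX, cAMP read by HTRF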; conditions: for EC50: pEC50 average, HEKf cells infected with human GPR52 BacMam virus, cAMP HTRF, 30 min at 37° C.; for Emax: maximal response normalised to DMSO (0%) and maximal compound 7m (J. Med. Chem., 2014, 57, 5226) response (100%)
[3] = Pharmacokinetic profiling in rat (IV and PO); format: in vivo, male Sprague-Dawley rats; conditions: male, Sprague-Dawley, plasma, n = 3, mean ± standard deviation
Protocol: The pharmacokinetic profiles of Example 1 were assessed in male Sprague-Dawley rats via intravenous (IV) and oral (per os, PO) routes of delivery. Pharmacokinetic data (mean values±standard deviation) for Example 1 of the invention are detailed in Table 5. Methods: For pharmacokinetic analysis, groups of three male Sprague-Dawley rats, ranging in weight between 200 and 230 g, were administered a single dose of Example 1 via IV or PO route, using the doses, dose volumes and vehicles specified in Table 5. […] WinNonlin v8.2 statistics software (Pharsight Corporation, California, USA) was used to generate pharmacokinetic parameters using non-compartmental analysis.

[4] = Brain penetration in rat (unbound brain-to-plasma ratio, IV); format: in vivo, male Sprague-Dawley rats; conditions: male, Sprague-Dawley, brain and plasma, 1 mg/kg, 10 min post-dose, n = 3
Protocol: Plasma and brain exposure were evaluated to assess the brain penetration of Example 1, following IV administration. Unbound brain-to-plasma ratio (Kp,uu) was calculated, as detailed in Table 5, following experimental determination of binding in rat plasma and brain homogenate. Methods: For brain penetration assessment, male Sprague-Dawley rats (n=3) were administered a single 1 mg/kg dose (formulated in 10% DMAC+10% Solutol HS15+80% saline) via the IV route. After 10 min post-dose, animals were sacrificed and brains extracted, homogenised with 2 volumes (w/v) of 50 mM sodium phosphate buffer (pH 7.4), and analysed by LC-MS/MS. Blood samples were removed at the same time point via tail vein bleed, centrifuged and the plasma analysed by LC-MS/MS. To permit calculation of unbound brain-to-plasma ratio (Kp,uu), test compound binding in rat plasma and brain homogenate was performed, using Rapid Equilibrium Dialysis (RED). […] Fraction unbound (Fu) in plasma and brain was calculated using the following formula, then used to correct total plasma and brain concentrations to derive the Kp,uu: Fraction bound=(Total plasma or brain ratio)−(Total buffer ratio)/Total plasma or brain ratio Fraction unbound (Fu,brain or plasma)=1−Fraction bound For correction of dilution in brain binding assay: Undiluted Fu,brain=(1/dilution factor)/((1/Fv diluted))−1)+(1/dilution factor) Where dilution factor=4

[5] = tested on: D-amphetamine-induced hyperlocomotor response; test: Amphetamine-induced locomotor activity in rat; format: in vivo, male Sprague-Dawley rats; conditions: 10 mg/kg PO, 60 min before D-amphetamine SC; activity over two hours
Protocol: The rat amphetamine-induced locomotor hyperactivity test is used to model the enhanced mesolimbic dopaminergic activity thought to contribute to psychosis in humans. […] Male Sprague-Dawley rats (200-250 g) were housed in groups with a 12 h light/dark cycle (lights on at 07.00), at an ambient temperature of 21±2° C. and with standard pelleted diet and water ad libitum. Testing was carried out in the light phase. On the day of the experiment, animals were habituated to the locomotor cages for a 60-minute period.
Locomotor activity was assessed for a two hour period after D-amphetamine treatment. Data are back-transformed means, adjusted for differences between treatment groups in activity during the 30 minutes prior to treatment with test compound or vehicle (n=10-12). Analysis was by general linear model with treatment, cohort and rack as factors. SEMs were calculated from the residuals of the statistical model.
Significant differences vs D-amphetamine are represented as *p<0.05, **p<0.01, ***p<0.001.

[6] = tested on: subchronic PCP induced cognitive deficit; test: Subchronic PCP-induced reversal learning deficit in rat; format: in vivo, female Lister Hooded rats; conditions: for reversal of subchronic PCP reversal learning deficit (percent correct responding, reversal phase): vs vehicle-treated subchronic PCP group; for effect on total number of lever presses: scPCP treated rats
Protocol: Testing was carried out in the light phase. Rats underwent operant training firstly to press the left/right lever for a food reward in the presence or absence of a visual cue, and then to respond to the opposite contingency. The reversal learning task was introduced as follows. On the day before each reversal task session, a full 30-minute operant training session was conducted in order to ensure stable responding. In the initial task, animals were first exposed to a five-minute period during which the contingency (cue position relative to active lever) was the same as for the operant training session. This was followed by a 2-minute time-out period, which was signalled by the house-light being turned off. In the subsequent 5-minute period (reversal task), the contingency was reversed. Responses made on the correct and incorrect levers were recorded. Animals undertook several of these reversal learning task sessions before the beginning of the drug studies in order to ensure that they attained a stable level of performance in both phases of the task. […] At this stage, training ceased and rats were treated with PCP (2 mg/kg, IP or vehicle 0.9% saline, IP) for 7 days followed by at least 7-days washout period.
In the initial phase, the reward contingency was the same as the previous day and in the reversal phase the reward contingency was reversed.
Data are presented as mean total number of lever presses (+SEM) and percent correct response (+SEM). […] Statistical significance was assumed when P<0.05 and was determined as follows: one-way ANOVA (IBM SPSS Statistics 22) was performed in order to detect main effect of drug treatment in the initial and reversal tasks. Where a significant effect was detected, a post-hoc LSD t-test was performed in order to compare treatment groups versus the appropriate control in the reversal phase of the test.
Data are shown as mean±s.e.m. % correct responding (n=8-10) and were analysed by ANOVA and post-hoc Student's t-test.
Data are shown as the mean total number of lever presses, correct responses are shown as clear bars and incorrect responses are shown as shaded bars (n=8-10).

[7] = 6 mg/kg IP, 60 min prior to testing

T1 sequence (Q9Y2T5 whole entry): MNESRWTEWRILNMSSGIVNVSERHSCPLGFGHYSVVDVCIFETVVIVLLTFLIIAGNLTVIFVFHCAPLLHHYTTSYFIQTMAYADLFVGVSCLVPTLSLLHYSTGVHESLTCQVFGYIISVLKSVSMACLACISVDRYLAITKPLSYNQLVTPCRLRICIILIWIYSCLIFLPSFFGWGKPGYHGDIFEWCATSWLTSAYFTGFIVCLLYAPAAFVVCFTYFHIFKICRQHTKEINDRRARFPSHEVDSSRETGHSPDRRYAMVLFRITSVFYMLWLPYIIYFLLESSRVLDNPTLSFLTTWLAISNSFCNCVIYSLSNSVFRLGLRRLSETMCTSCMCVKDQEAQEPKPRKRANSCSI

| SMILES | Emax (%) (human GPR52 [1]) | EC50 (human GPR52 [2]) [nM] | other results |
| --- | --- | --- | --- |
| O=C1NCCc2c1cnn2-c1ccnc(C(O)c2cc(F)cc(C(F)(F)F)c2)c1 (single isomer, unassigned) [Example 36 Isomer 1, 1-(2-((3-fluoro-5-(trifluoromethyl)phenyl)(hydroxy)methyl)pyridin-4-yl)-1,5,6,7-tetrahydro-4H-pyrazolo[4,3-c]pyridin-4-one] | 72 | 1580 |  |
| O=C1NCCc2c1cnn2-c1ccnc(Cc2cc(F)cc(C(F)(F)F)c2)c1 [Example 1, 1-(2-(3-fluoro-5-(trifluoromethyl)benzyl)pyridin-4-yl)-1,5,6,7-tetrahydro-4H-pyrazolo[4,3-c]pyridin-4-one] |  |  | clearance ([3]; Rat IV, 1 mg/kg): 16.4 ± 1 mL/min/kg; bioavailability ([3]; Rat PO, 3 mg/kg): 40.4 ± 6%; Kp uu at 10 min [4]: 0.35 ± 0.03; reduction of the D-amphetamine-induced hyperlocomotor response [5]: reached statistical significance at 10 mg/kg; reversal of subchronic PCP reversal learning deficit (percent correct responding, reversal phase) ([6]; 10 mg/kg PO, 2 h prior to testing): significantly (P<0.05−P<0.001) reversed the deficit; reversal of subchronic PCP reversal learning deficit (percent correct responding, reversal phase) ([6]; 30 mg/kg PO, 2 h prior to testing): significantly (P<0.05−P<0.001) reversed the deficit; effect on total number of lever presses ([6]; 3, 10 and 30 mg/kg PO, 2 h prior to testing): no significant effects |
| O=C1NCCc2c1c(C(F)(F)F)nn2-c1ccnc(Cc2cc(F)cc(C(F)(F)F)c2)c1 [Example 116, 1-(2-(3-fluoro-5-(trifluoromethyl)benzyl)pyridin-4-yl)-3-(trifluoromethyl)-1,5,6,7-tetrahydro-4H-pyrazolo[4,3-c]pyridin-4-one] |  | 5.01 | Emax (human GPR52 [2]): 95% |
| Cc1cc(-n2nc(Cc3cc(F)cc(C(F)(F)F)c3)nc2C)ccc1C(N)=O [FTBMT, reference compound] |  |  | reduction of the D-amphetamine-induced hyperlocomotor response [5]: showed a trend towards a reduced D-amphetamine-induced hyperlocomotor response but statistical significance was not reached |
| Oc1cc2c(cc1O)C(c1ccccc1)CNCC2 (stereo not drawn) [SKF-38393, reference compound] |  |  | effect on total number of lever presses [6, 7]: no significant effects; reversal of subchronic PCP reversal learning deficit (percent correct responding, reversal phase) [6, 7]: significantly (P<0.05−P<0.001) reversed the deficit |

The remaining molecules from weak to strong by EC50 (human GPR52 [2]), led by results:

| Emax (%) (human GPR52 [1]) | EC50 (human GPR52 [2]) [nM] | SMILES | other results |
| --- | --- | --- | --- |
| 94 | 251 | O=C1NCCc2c1cnn2-c1ccnc(C(O)c2cc(F)cc(C(F)(F)F)c2)c1 (single isomer, unassigned) [Example 36 Isomer 2, 1-(2-((3-fluoro-5-(trifluoromethyl)phenyl)(hydroxy)methyl)pyridin-4-yl)-1,5,6,7-tetrahydro-4H-pyrazolo[4,3-c]pyridin-4-one] |  |
| 83 | 126 | CC1Cc2c(cnn2-c2ccnc(Cc3cc(F)cc(C(F)(F)F)c3)c2)C(=O)N1 (single isomer, unassigned) [Example 40 Isomer 2, 1-(2-(3-fluoro-5-(trifluoromethyl)benzyl)pyridin-4-yl)-6-methyl-1,5,6,7-tetrahydro-4H-pyrazolo[4,3-c]pyridin-4-one] |  |
| 103 | 25.1 | Cc1nn(-c2ccnc(C(O)c3cc(F)cc(C(F)(F)F)c3)c2)c2c1C(=O)NCC2 (single isomer, unassigned) [117 Isomer 2, 1-(2-((3-fluoro-5-(trifluoromethyl)phenyl)(hydroxy)methyl)pyridin-4-yl)-3-methyl-1,5,6,7-tetrahydro-4H-pyrazolo[4,3-c]pyridin-4-one] |  |
|  | 25.1 | N#Cc1nn(-c2ccnc(Cc3cc(F)cc(C(F)(F)F)c3)c2)c2c1C(=O)NCC2 [Example 115, 1-(2-(3-fluoro-5-(trifluoromethyl)benzyl)pyridin-4-yl)-4-oxo-4,5,6,7-tetrahydro-1H-pyrazolo[4,3-c]pyridine-3-carbonitrile] | Emax (human GPR52 [2]): 91% |
| 101 | 7.94 | Cc1nn(-c2cc(C(O)c3cc(F)cc(C(F)(F)F)c3)ccn2)c2c1C(=O)NCC2 (single isomer, unassigned) [118 Isomer 2, 1-(4-((3-fluoro-5-(trifluoromethyl)phenyl)(hydroxy)methyl)pyridin-2-yl)-3-methyl-1,5,6,7-tetrahydro-4H-pyrazolo[4,3-c]pyridin-4-one] |  |

Source: US20230002374A1, “GPR52 MODULATOR COMPOUNDS” (Heptares Therapeutics Limited, priority 2019, published 2023)
